According to patent publication US20250059141A1, “TLR MODULATOR AND USE THEREOF” (DUALITY BIOLOGICS (SUZHOU) CO., LTD., priority 2021, published 2025):

Key:
[1] = target: T1, hTLR7 (human Toll-like receptor 7) (Homo sapiens, UniProt Q9NYK1); test: HEK-Blue hTLR7 reporter assay (QUANTI-Blue, OD650); format: cell-based; conditions: HEK-Blue hTLR7 cells, 24 h; class symbols; read-out: Reporter assay TLR7 EC50
T1 construct: host or cells: HEK-Blue hTLR7 (HEK293-derived reporter cells)
T1 sequence (Q9NYK1 27-1049): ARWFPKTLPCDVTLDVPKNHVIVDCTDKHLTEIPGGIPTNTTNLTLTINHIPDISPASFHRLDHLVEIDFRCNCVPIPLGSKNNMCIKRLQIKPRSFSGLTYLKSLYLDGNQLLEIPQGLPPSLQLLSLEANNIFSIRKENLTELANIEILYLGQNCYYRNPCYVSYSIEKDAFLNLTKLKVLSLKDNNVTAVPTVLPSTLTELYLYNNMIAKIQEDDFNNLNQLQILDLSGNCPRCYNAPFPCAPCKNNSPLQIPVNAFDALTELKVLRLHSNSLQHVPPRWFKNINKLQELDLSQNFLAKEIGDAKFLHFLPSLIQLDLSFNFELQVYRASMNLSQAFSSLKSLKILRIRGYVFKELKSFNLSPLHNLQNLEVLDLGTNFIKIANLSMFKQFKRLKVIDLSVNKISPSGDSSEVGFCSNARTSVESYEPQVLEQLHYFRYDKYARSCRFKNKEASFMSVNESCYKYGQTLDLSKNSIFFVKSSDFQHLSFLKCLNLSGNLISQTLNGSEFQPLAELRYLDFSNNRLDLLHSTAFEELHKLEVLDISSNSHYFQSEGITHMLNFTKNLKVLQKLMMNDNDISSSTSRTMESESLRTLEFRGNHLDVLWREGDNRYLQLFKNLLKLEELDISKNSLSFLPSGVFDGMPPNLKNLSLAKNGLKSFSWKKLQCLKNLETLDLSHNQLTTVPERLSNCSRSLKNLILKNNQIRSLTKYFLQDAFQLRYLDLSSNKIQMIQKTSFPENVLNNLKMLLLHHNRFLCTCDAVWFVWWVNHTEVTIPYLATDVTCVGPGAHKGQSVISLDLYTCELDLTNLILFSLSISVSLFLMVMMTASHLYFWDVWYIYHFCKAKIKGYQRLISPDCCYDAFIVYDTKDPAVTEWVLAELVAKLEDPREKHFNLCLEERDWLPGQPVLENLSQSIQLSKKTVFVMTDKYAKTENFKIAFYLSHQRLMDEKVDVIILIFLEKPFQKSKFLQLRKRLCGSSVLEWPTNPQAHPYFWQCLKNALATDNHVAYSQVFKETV
Method: In this example, the agonistic activity of the compounds of the present application on hTLR7 (human Toll-like receptor 7) and hTLR8 (human Toll-like receptor 8) was assessed; the induction activity of the compounds on human PBMCs for TNF-α and IFN-α production was assessed in human PBMCs (human peripheral blood mononuclear cells).
All compounds were formulated in DMSO into 30 mM stock solutions and preserved at 4° C. The reference compound ([…], Cat. No. tlrl-r848-5) was purchased from InvivoGen and formulated into a 5 mg/mL stock solution in DMSO and preserved in a freezer at −20° C. HEK-Blue hTLR7 and HEK-Blue hTLR8 cell lines were purchased from InvivoGen, and human PBMCs were purchased from Shanghai Saily Biotechnology Co., Ltd. (Cat. No. XFB—HP100B).
The major instruments used in this study were multifunctional microplate reader Flexstation III (Molecular Device), Envision (Perkin Elmer), M2e (Molecular Device), and Echo555 (Labcyte). 2.1 Agonistic activity of compounds on hTLR7 (human Toll-like receptor 7) and hTLR8 (human Toll-like receptor 8)
Compound dilution: The compounds of the present application are diluted in DMSO, for example, to about 15 mM. The reference compound was added to the plates in sequence after dilution. The compounds were serially 3-fold diluted to 10 concentrations and added to 96-well plates in duplicate.
For the negative control wells, DMSO was added at 0.2 μL/well, and the reference compound was added to the positive control wells. The final concentration of DMSO was 0.2%.
Cell plating: When an 80% confluence of HEK Blue hTLR7&8 cells in the culture flask was observed under a microscope, the culture medium was discarded, 10 mL of detection medium was added, and the cells were separated by pipetting. The cells were counted on a cytometer and diluted to 500,000 cells/mL. The cells were plated at 100 μL/50,000 cells/well in the 96-well plates containing the compounds. The compounds and cells were co-incubated at 37° C. in a 5% CO2 incubator for 24 hours.
Compound activity detection: 20 μL of cell supernatant was taken from each well and added to a plate containing QUANTI-Blue™ reagent at 180 μL/well. The plate was incubated at 37° C. for 1 hour, and the absorbance at 650 nm (OD650) was measured on the multifunctional microplate reader Flexstation III.
Compound activity data analysis: The OD650 values were analyzed by GraphPad Prism software and fitted to give dose-response curves of the compounds. The EC50 values of compounds were calculated.

[2] = system: IFN-α production in human PBMCs; test: Induction of IFN-α in human PBMCs (ELISA); format: cell-based; conditions: PBMC, 24 h, serial 4-fold dilutions, class symbols, read-out: PBMC assay IFNa EC50
Method: In this example, the induction activity of the compounds of the present application on human PBMCs for TNF-α and IFN-α production was assessed in human PBMCs (human peripheral blood mononuclear cells). The human PBMCs were purchased from Shanghai Saily Biotechnology Co., Ltd. (Cat. No. XFB—HP100B). PBMC cells were treated with the compounds. The compounds of the present application are diluted in DMSO, for example, to about 15 mM. The reference compound was added to the plates in sequence after diluted to 5 mg/mL. The compounds were serially 3- or 4-fold diluted to 8 concentrations and added to plates in duplicate (Table 2-1 for serial 3-fold dilutions and Table 2-2 for serial 4-fold dilutions). For the negative control wells, DMSO was added at 0.4 μL/well, and a 5 mg/mL reference compound solution was added to the positive control wells at 0.4 μL/well. The final concentration of DMSO was 0.2%. Frozen human PBMCs in cryopreservation tubes were quickly thawed in a 37° C. water bath and transferred into 50-mL centrifuge tubes. Prewarmed RPMI1640 medium was gradually added and the mixture was well mixed and centrifuged for 15 min before the supernatant was discarded. The cells were resuspended in a culture medium and counted. The cell suspension was adjusted to 2.5×10^6 cells/mL with the culture medium. Diluted cells were added at 200 μL/500,000 cells/well in 96-well plates containing the compounds. The cell plates were incubated at 37° C./5% CO2 for 24 h.
The plate was washed 4 times, then the detection antibody was added. […] The plate was washed 4 additional times, then the enzyme was added. […] Termination of reaction: The reaction was terminated by quickly adding the stop solution at 100 μL/well. Plate reading: The reading at wavelength 450 nm was detected by an M2e instrument within 10 min after the termination.
Compound activity data analysis: The OD450 values were converted to TNF-α and IFN-α contents by GraphPad Prism software analysis and fitted to give dose-response curves of the compounds. The EC50 values for the compounds were calculated, where the Emax values are the maximal values for TNF-α and IFN-α.

| EC50 [1] | Structure (SMILES) | EC50 [2] |
| --- | --- | --- |
| > 1 µM | CCCN(OCc1ccc(N)cc1)C(=O)C1=Cc2ccc(C(=O)Nc3cccc(CN)c3)cc2N=C(N)C1 [Compound 86] | 0.05 to 0.5 µM |
| > 1 µM | CCCN(OCc1ccc(N)cc1)C(=O)C1=Cc2ccc(C(=O)Nc3ncco3)cc2N=C(N)C1 [Compound 87] | 0.05 to 0.5 µM |
| > 1 µM | CCCN(OCc1ccc(N)cc1)C(=O)C1=Cc2ccc(C(=O)Nc3ccn(C)n3)cc2N=C(N)C1 [Compound 88] | 0.05 to 0.5 µM |
| > 1 µM | CCCN(OCc1ccc(N)cc1)C(=O)C1=Cc2ccc(C(=O)Nc3ccc4cn[nH]c4c3)cc2N=C(N)C1 [Compound 89] | 0.05 to 0.5 µM |
| > 1 µM | CCCN(OCc1ccc(N)cc1)C(=O)C1=Cc2ccc(C(=O)Nc3ccc4c(c3)CNC4)cc2N=C(N)C1 [Compound 90] | 0.05 to 0.5 µM |
| > 1 µM | CCCN(OCc1ccc(N)cc1)C(=O)C1=Cc2ccc(C(=O)N3CCN(C)CC3)cc2N=C(N)C1 [Compound 93] | 0.05 to 0.5 µM |
| 0.1 to 1 µM | CCCN(OCc1ccc(N)cc1)C(=O)C1=Cc2ccc(C(=O)N3CC(Oc4ccccc4)C3)cc2N=C(N)C1 [Compound 94] | 0.05 to 0.5 µM |
| > 1 µM | CCCN(OCc1ccc(N)cc1)C(=O)C1=Cc2ccc(C(=O)N3CC4(COC4)C3)cc2N=C(N)C1 [Compound 95] | 0.05 to 0.5 µM |
| > 1 µM | CCCN(OCc1ccc(N)cc1)C(=O)C1=Cc2ccc(C(=O)N3CCN(c4ccccc4)CC3)cc2N=C(N)C1 [Compound 97] | > 0.5 µM |

Second part, the compound before the results:

| Structure (SMILES) | EC50 [1] | EC50 [2] |
| --- | --- | --- |
| CCCN(OCc1ccc(N)cc1)C(=O)C1=Cc2ncc(-c3cncc(CO)c3)cc2N=C(N)C1 [Compound 61] | 0.1 to 1 µM | 0.01 to 0.05 µM |
| CCCN(OCc1ccc(N)cc1)C(=O)C1=Cc2ccc(-c3cncc(CO)c3)nc2N=C(N)C1 [Compound 62] | 0.1 to 1 µM | ≤ 0.01 µM |
| CCCN(OCc1ccc(N)cc1)C(=O)C1=Cc2ccc(-c3cnc4c(c3)C(=O)OC4)nc2N=C(N)C1 [Compound 63] | 0.1 to 1 µM | 0.01 to 0.05 µM |
| CCCN(OCc1ccc(N)cc1)C(=O)C1=Cc2ccc(-c3cccc(S(=O)(=O)NCCO)c3)cc2N=C(N)C1 [Compound 64] | 0.1 to 1 µM | 0.01 to 0.05 µM |
| CCCN(OCc1ccc(N)cc1)C(=O)C1=Cc2ccc(-c3cccc(S(=O)(=O)N4CCC(O)CC4)c3)cc2N=C(N)C1 [Compound 66] | 0.1 to 1 µM | 0.05 to 0.5 µM |
| CCCN(OCc1ccc(N)cc1)C(=O)C1=Cc2ccc(-c3cccc(S(=O)(=O)N4CCNCC4)c3)cc2N=C(N)C1 [Compound 67] | 0.1 to 1 µM | > 0.5 µM |
| CCCN(OCc1ccc(N)cc1)C(=O)C1=Cc2ccc(-c3cccc(S(=O)(=O)N4CCOCC4)c3)cc2N=C(N)C1 [Compound 68] | 0.1 to 1 µM | 0.01 to 0.05 µM |
| CCCN(OCc1ccc(N)cc1)C(=O)C1=Cc2ccc(-c3cncc(S(=O)(=O)N4CCNCC4)c3)cc2N=C(N)C1 [Compound 69] | 0.1 to 1 µM | 0.05 to 0.5 µM |
| CCCN(OCc1ccc(N)cc1)C(=O)C1=Cc2ccc(-c3cncc(S(=O)(=O)NCCO)c3)cc2N=C(N)C1 [Compound 70] | 0.1 to 1 µM | 0.01 to 0.05 µM |
| CCCN(OCc1ccc(N)cc1)C(=O)C1=Cc2ccc(-c3cncc(S(=O)(=O)N4CCC(O)CC4)c3)cc2N=C(N)C1 [Compound 71] | 0.1 to 1 µM | 0.01 to 0.05 µM |
| CCCN(OCc1ccc(N)cc1)C(=O)C1=Cc2ccc(-c3cncc(S(=O)(=O)N4CC[C@H](O)C4)c3)cc2N=C(N)C1 [Compound 72] | 0.1 to 1 µM | 0.01 to 0.05 µM |
| CCCN(OCc1ccc(N)cc1)C(=O)C1=Cc2ccc(-c3cncc([S+](C)[O-])c3)cc2N=C(N)C1 (centres unmarked) [Compound 73] | 0.1 to 1 µM | ≤ 0.01 µM |
| CCCN(OCc1ccc(N)cc1)C(=O)C1=Cc2ccc(C(=O)NC(C)(C)c3ccccc3)cc2N=C(N)C1 [Compound 76] | 0.1 to 1 µM | 0.01 to 0.05 µM |
| CCCN(OCc1ccc(N)cc1)C(=O)C1=Cc2ccc(C(=O)N[C@@H](C)c3ccccc3)cc2N=C(N)C1 [Compound 77] | 0.1 to 1 µM | 0.01 to 0.05 µM |
| CCCN(OCc1ccc(N)cc1)C(=O)C1=Cc2ccc(C(=O)N[C@H]3C[C@@H]3c3ccccc3)cc2N=C(N)C1 [Compound 78] | 0.1 to 1 µM | ≤ 0.01 µM |
| CCCN(OCc1ccc(N)cc1)C(=O)C1=Cc2ccc(C(=O)NC3COC3)cc2N=C(N)C1 [Compound 81] | > 1 µM | 0.01 to 0.05 µM |
| CCCN(OCc1ccc(N)cc1)C(=O)C1=Cc2ccc(C(=O)NC3CCCCC3)cc2N=C(N)C1 [Compound 82] | > 1 µM | 0.05 to 0.5 µM |
| CCCN(OCc1ccc(N)cc1)C(=O)C1=Cc2ccc(C(=O)NC3CCOCC3)cc2N=C(N)C1 [Compound 84] | > 1 µM | 0.05 to 0.5 µM |
| CCCN(OCc1ccc(N)cc1)C(=O)C1=Cc2ccc(C(=O)Nc3cncc(OC)c3)cc2N=C(N)C1 [Compound 85] | > 1 µM | 0.05 to 0.5 µM |
